{"source": "patent US12410164B2", "about": "“Heterocyclic compounds and medical use thereof” (FONDAZIONE TELETHON, priority 2018, dated 2025)"}
{"target": "F508del-CFTR (Homo sapiens, UniProt P13569, DEL508-508)", "sequence (P13569 with tags, fused parts or gaps DEL508-508)": "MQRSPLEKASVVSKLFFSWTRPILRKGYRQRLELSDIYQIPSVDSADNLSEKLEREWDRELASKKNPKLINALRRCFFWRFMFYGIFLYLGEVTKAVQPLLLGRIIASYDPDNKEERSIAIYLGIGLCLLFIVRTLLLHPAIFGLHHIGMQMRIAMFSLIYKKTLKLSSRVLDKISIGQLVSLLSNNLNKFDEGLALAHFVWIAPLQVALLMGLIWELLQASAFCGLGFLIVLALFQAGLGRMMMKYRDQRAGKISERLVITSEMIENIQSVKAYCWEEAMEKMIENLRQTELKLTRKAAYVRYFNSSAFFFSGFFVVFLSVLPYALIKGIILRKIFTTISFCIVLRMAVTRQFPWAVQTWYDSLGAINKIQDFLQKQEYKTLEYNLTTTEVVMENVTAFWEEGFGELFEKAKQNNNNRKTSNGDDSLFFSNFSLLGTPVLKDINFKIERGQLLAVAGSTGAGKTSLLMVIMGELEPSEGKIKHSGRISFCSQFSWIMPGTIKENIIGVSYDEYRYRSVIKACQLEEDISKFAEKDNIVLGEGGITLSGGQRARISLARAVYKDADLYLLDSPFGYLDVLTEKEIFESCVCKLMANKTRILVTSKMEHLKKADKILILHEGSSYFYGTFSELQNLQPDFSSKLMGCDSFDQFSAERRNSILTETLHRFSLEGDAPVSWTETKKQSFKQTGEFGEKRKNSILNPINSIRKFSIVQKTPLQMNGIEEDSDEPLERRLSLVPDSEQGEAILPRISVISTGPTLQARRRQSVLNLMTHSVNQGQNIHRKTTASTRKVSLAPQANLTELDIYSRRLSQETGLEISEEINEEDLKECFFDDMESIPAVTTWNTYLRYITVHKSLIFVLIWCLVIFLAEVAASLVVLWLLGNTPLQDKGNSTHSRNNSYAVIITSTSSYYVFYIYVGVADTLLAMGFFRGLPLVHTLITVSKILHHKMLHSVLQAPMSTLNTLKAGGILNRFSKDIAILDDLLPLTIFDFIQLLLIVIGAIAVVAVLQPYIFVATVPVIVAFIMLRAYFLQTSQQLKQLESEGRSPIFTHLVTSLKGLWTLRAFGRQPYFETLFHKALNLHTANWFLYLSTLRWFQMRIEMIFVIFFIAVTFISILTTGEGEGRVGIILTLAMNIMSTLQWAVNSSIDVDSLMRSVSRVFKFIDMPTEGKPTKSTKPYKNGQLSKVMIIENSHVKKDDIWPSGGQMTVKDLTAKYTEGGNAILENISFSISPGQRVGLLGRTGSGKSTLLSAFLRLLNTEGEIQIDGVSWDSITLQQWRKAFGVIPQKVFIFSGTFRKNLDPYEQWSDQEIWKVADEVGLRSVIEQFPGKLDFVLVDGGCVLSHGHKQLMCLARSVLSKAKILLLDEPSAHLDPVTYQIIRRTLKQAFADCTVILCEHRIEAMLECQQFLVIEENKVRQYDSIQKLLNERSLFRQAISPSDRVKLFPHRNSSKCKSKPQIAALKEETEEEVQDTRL", "experiment": "HS-YFP kinetic fluorescence (iodide quenching rate) assay in CFBE41o− cells", "assay_type": "cell-based", "design": "expressed in transfected cells; host or cells: CFBE41o- cells with expression of F508del-CFTR and HS-YFP (generated as in Sondo et al. 2011)", "details": "Table 1; compound at 10 μM plus VX-809; (QRTOT − QRVX)/QRVX, HS-YFP assay", "in_short": "(§1)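 CFBE41o- cells co-expressing F508del-CFTR and HS-YFP, treated 24 h with compound (0.1-0.2% DMSO), then stimulated with 20 μM forskolin plus 50 μM genistein. Fluorescence was read for 14 s during NaI injection. Background-subtracted, normalized traces were fitted exponentially to give maximum quenching rate (QR).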", "units": {"AI (%) additivity index": "%"}}
{"compound": "CCOC(=O)c1cc2c(n1Cc1ccc(C)cc1)-c1[nH]c(=O)c(S(C)(=O)=O)cc1CC2", "note": "[PP024, Ethyl 7-(metansulfonyl)-1-[(4-methylphenyl)methyl]-8-oxo-4,5,8,9-tetrahydro-1H-pyrrolo[3,2-h]quinoline-2-carboxylate]", "AI (%) additivity index": 11}
{"compound": "CC(C)OC(=O)c1c(Br)c2c(n1CC1CC1)-c1[nH]c(=O)c(S(=O)(=O)c3ccccc3)cc1CC2", "note": "[PP106, Propan-2-yl 7-(benzenesulfonyl)-3-bromo-1-(cyclopropylmethyl)-8-oxo-4,5,8,9-tetrahydro-1H-pyrrolo[3,2-h]quinoline-2-carboxylate]", "AI (%) additivity index": 277}
{"compound": "CCOC(=O)c1cc2c(n1Cc1ccccc1)-c1[nH]c(=O)c(S(=O)(=O)c3ccccc3)cc1CC2", "note": "[PP011]", "AI (%) additivity index": 150}
{"compound": "Cc1cccc(Cn2c(C(=O)OC(C)C)cc3c2-c2[nH]c(=O)c(S(=O)(=O)c4ccccc4)cc2CC3)c1", "note": "[PP103, Propan-2-yl 7-(benzenesulfonyl)-1-[(3-methylphenyl)methyl]-8-oxo-4,5,8,9-tetrahydro-1H-pyrrolo[3,2-h]quinoline-2-carboxylate]", "AI (%) additivity index": 284}
{"compound": "Cc1ccc(Cn2c(C(=O)NC(C)C)c(Br)c3c2-c2[nH]c(=O)c(S(=O)(=O)c4ccccc4)cc2CC3)cc1", "note": "[PP086, 7-(Benzenesulfonyl)-3-bromo-1-[(4-methylphenyl)methyl]-8-oxo-N-(propan-2-yl)-4,5,8,9-tetrahydro-1H-pyrrolo[3,2-h]quinoline-2-carboxamide]", "AI (%) additivity index": 116}
{"compound": "O=C(NC1CC1)c1cc2c(n1Cc1ccc(Br)cc1)-c1[nH]c(=O)c(S(=O)(=O)c3ccccc3)cc1CC2", "note": "[PP098, 7-(Benzenesulfonyl)-1-[(4-bromophenyl)methyl]-N-cyclopropyl-8-oxo-4,5,8,9-tetrahydro-1H-pyrrolo[3,2-h]quinoline-2-carboxamide]", "AI (%) additivity index": 4}
{"compound": "CC(C)NC(=O)c1c(Br)c2c(n1Cc1ccc(Br)cc1)-c1[nH]c(=O)c(S(=O)(=O)c3ccccc3)cc1CC2", "note": "[PP097, 7-(Benzenesulfonyl)-3-bromo-1-[(4-bromophenyl)methyl]-8-oxo-N-(propan-2-yl)-4,5,8,9-tetrahydro-1H-pyrrolo[3,2-h]quinoline-2-carboxamide]", "AI (%) additivity index": 99}
{"compound": "Cc1cccc(Cn2c(C(N)=O)cc3c2-c2[nH]c(=O)c(S(=O)(=O)c4ccccc4)cc2CC3)c1", "note": "[PP093, 7-(Benzenesulfonyl)-1-[(3-methylphenyl)methyl]-8-oxo-4,5,8,9-tetrahydro-1H-pyrrolo[3,2-h]quinoline-2-carboxamide]", "AI (%) additivity index": 25}
{"compound": "Cc1ccc(Cn2c(C(=O)OC(C)C)cc3c2-c2[nH]c(=O)c(S(=O)(=O)c4ccccc4)cc2CC3)cc1", "note": "[PP022, Propan-2-yl 7-(benzenesulfonyl)-1-[(4-methylphenyl)methyl]-8-oxo-4,5,8,9-tetrahydro-1H-pyrrolo[3,2-h]quinoline-2-carboxylate]", "AI (%) additivity index": 279}
{"compound": "CCOC(=O)c1c(Br)c2c(n1Cc1ccc(I)cc1)-c1[nH]c(=O)c(S(=O)(=O)c3ccccc3)cc1CC2", "note": "[PP063, Ethyl 7-(benzenesulfonyl)-3-bromo-1-[(4-iodophenyl)methyl]-8-oxo-4,5,8,9-tetrahydro-1H-pyrrolo[3,2-h]quinoline-2-carboxylate]", "AI (%) additivity index": 146}
{"compound": "CCOC(=O)c1cc2c(n1CC1CC1)-c1[nH]c(=O)c(S(=O)(=O)c3ccccc3)cc1CC2", "note": "[PP064, Ethyl 7-(benzenesulfonyl)-1-(cyclopropylmethyl)-8-oxo-4,5,8,9-tetrahydro-1H-pyrrolo[3,2-h]quinoline-2-carboxylate]", "AI (%) additivity index": 235}
{"compound": "CCOC(=O)c1cc2c(n1CCCN(C)C)-c1[nH]c(=O)c(S(=O)(=O)c3ccccc3)cc1CC2", "note": "[PP075, Ethyl 7-(benzenesulfonyl)-1-[3-(dimethylamino)propyl]-8-oxo-4,5,8,9-tetrahydro-1H-pyrrolo[3,2-h]quinoline-2-carboxylate]", "AI (%) additivity index": 34}
{"compound": "CCOC(=O)c1cc2c(n1Cc1c(C)cc(C)cc1C)-c1[nH]c(=O)c(S(=O)(=O)c3ccccc3)cc1CC2", "note": "[PP068, Ethyl 7-(benzenesulfonyl)-8-oxo-1-[(2,4,6-trimethylphenyl)methyl]-4,5,8,9-tetrahydro-1H-pyrrolo[3,2-h]quinoline-2-carboxylate]", "AI (%) additivity index": 116}
{"compound": "CCOC(=O)c1c(Br)c2c(n1Cc1ccccc1C)-c1[nH]c(=O)c(S(=O)(=O)c3ccccc3)cc1CC2", "note": "[PP027, Ethyl 3-bromo 1-(2-methylbenzyl)-8-oxo-7-(phenylsulfonyl)-4,5,8,9-tetrahydro-1H-pyrrolo[3,2-h]quinoline-2-carboxylate]", "AI (%) additivity index": 185}
{"compound": "CCOC(=O)c1cc2c(n1Cc1ccc(C(F)(F)F)cc1)-c1[nH]c(=O)c(S(=O)(=O)c3ccccc3)cc1CC2", "note": "[PP070, Ethyl 7-(benzenesulfonyl)-8-oxo-1-{[4-(trifluoromethyl)phenyl]methyl}-4,5,8,9-tetrahydro-1H-pyrrolo[3,2-h]quinoline-2-carboxylate]", "AI (%) additivity index": 101}
{"compound": "Cc1ccc(Cn2c(C(=O)O)c(Br)c3c2-c2[nH]c(=O)c(S(=O)(=O)c4ccccc4)cc2CC3)cc1", "note": "[PP079, 7-(Benzenesulfonyl)-3-bromo-1-[(4-methylphenyl)methyl]-8-oxo-4,5,8,9-tetrahydro-1H-pyrrolo[3,2-h]quinoline-2-carboxylic acid]", "AI (%) additivity index": 38}
{"target": "F508del-CFTR (Homo sapiens, UniProt P13569, DEL508-508)", "experiment": "HS-YFP kinetic fluorescence (iodide quenching rate) assay in CFBE41o− cells", "assay_type": "cell-based", "design": "expressed in transfected cells; host or cells: CFBE41o- cells with expression of F508del-CFTR and HS-YFP (generated as in Sondo et al. 2011)", "details": "Table 1a; compound at 10 μM plus VX-809; (QRTOT − QRVX)/QRVX", "in_short": "as §1", "units": {"AI additivity index": "%"}}
{"compound": "CCOC(=O)c1cc2ccc3cc(S(=O)(=O)c4ccccc4)c(=O)[nH]c3c2n1Cc1ccc(C)cc1", "note": "[14 (PP058), Ethyl 1-(4-methylbenzyl)-8-oxo-7-(phenylsulfonyl)-8,9-dihydro-1H-pyrrolo[3,2-h]quinoline-2-carboxylate]", "AI additivity index": 177}
{"compound": "CCOC(=O)c1c(Br)c2ccc3cc(S(=O)(=O)c4ccccc4)c(=O)[nH]c3c2n1Cc1ccc(C)cc1", "note": "[13 (PP057), Ethyl 7-(benzenesulfonyl)-3-bromo-1-[(4-methylphenyl)methyl]-8-oxo-8,9-dihydro-1H-pyrrolo[3,2-h]quinoline-2-carboxylate]", "AI additivity index": 272}
{"target": "F508del-CFTR (Homo sapiens, UniProt P13569, DEL508-508)", "experiment": "HS-YFP kinetic fluorescence (iodide quenching rate) assay in CFBE41o− cells", "assay_type": "cell-based", "design": "expressed in transfected cells; host or cells: CFBE41o- cells with expression of F508del-CFTR and HS-YFP (generated as in Sondo et al. 2011)", "details": "Table 3; compound at 10 μM plus VX-809; (QRTOT-QRVX)/QRVX", "in_short": "as §1", "units": {"AI additivity index": "%"}}
{"compound": "CCOC(=O)c1cc2c(n1Cc1cccc(C)c1)-c1nc(NS(=O)(=O)c3ccccc3)ncc1CC2", "note": "[SVQ11, Ethyl 2-[(benzenesulfonyl)amino]-9-[(3-methylphenyl)methyl]-6,9-dihydro-5H-pyrrolo[3,2-h]quinazoline-8-carboxylate]", "AI additivity index": 151}
{"compound": "CCOC(=O)c1c(Br)c2c(n1Cc1ccc(C)cc1)-c1nc(NS(=O)(=O)c3ccccc3)ncc1CC2", "note": "[SVQ10, Ethyl 2-[(benzenesulfonyl)amino]-7-bromo-9-[(4-methylphenyl)methyl]-6,9-dihydro-5H-pyrrolo[3,2-h]quinazoline-8-carboxylate]", "AI additivity index": 134}
{"target": "F508del-CFTR (Homo sapiens, UniProt P13569, DEL508-508)", "experiment": "HS-YFP kinetic fluorescence (iodide quenching rate) assay in CFBE41o− cells", "assay_type": "cell-based", "design": "expressed in transfected cells; host or cells: CFBE41o- cells with expression of F508del-CFTR and HS-YFP (generated as in Sondo et al. 2011)", "details": "Table 5; compound at 10 μM plus VX-809; (QRTOT-QRVX)/QRVX", "in_short": "as §1", "units": {"AI (%) additivity index": "%"}}
{"compound": "CCOC(=O)c1ccc2n1CCc1cnc(NC3CCCC3)nc1-2", "note": "[QZQ14, Ethyl 2-(cyclopentylamino)-5,6-dihydropyrimido[5,4-g]indolizine-8-carboxylate]", "AI (%) additivity index": 18}
{"target": "F508del-CFTR (Homo sapiens, UniProt P13569, DEL508-508)", "experiment": "HS-YFP kinetic fluorescence (iodide quenching rate) assay in CFBE41o− cells", "assay_type": "cell-based", "design": "expressed in transfected cells; host or cells: CFBE41o- cells with expression of F508del-CFTR and HS-YFP (generated as in Sondo et al. 2011)", "details": "Table 6; compound at 10 μM plus VX-809; (QRTOT-QRVX)/QRVX", "in_short": "as §1", "units": {"AI (%) additivity index": "%"}}
{"compound": "CCOC(=O)c1nn(Cc2cccc(C)c2)c2c1CCc1cc(S(=O)(=O)c3ccccc3)c(=O)[nH]c1-2", "note": "[PZ3, Ethyl 7-(benzenesulfonyl)-1-[(3-methylphenyl)methyl]-8-oxo-4,5,8,9-tetrahydro-1H-pyrazolo[4,3-h]quinoline-3-carboxylate]", "AI (%) additivity index": 163}
{"target": "F508del-CFTR (Homo sapiens, UniProt P13569, DEL508-508)", "experiment": "HS-YFP kinetic fluorescence (iodide quenching rate) assay in CFBE41o− cells", "assay_type": "cell-based", "design": "expressed in transfected cells; host or cells: CFBE41o- cells with expression of F508del-CFTR and HS-YFP (generated as in Sondo et al. 2011)", "details": "relative to the analogue", "in_short": "as §1"}
{"compound": "CCOC(=O)c1cc2c(n1Cc1ccccc1)-c1[nH]c(=O)c(S(=O)(=O)c3ccccc3)cc1CC2", "note": "[PP011]", "structure-activity comparison of corrector potency/activity": "causes a reduction in activity"}
{"compound": "CCOC(=O)c1c(Br)c2ccc3cc(S(=O)(=O)c4ccccc4)c(=O)[nH]c3c2n1Cc1ccc(C)cc1", "note": "[13 (PP057), Ethyl 7-(benzenesulfonyl)-3-bromo-1-[(4-methylphenyl)methyl]-8-oxo-8,9-dihydro-1H-pyrrolo[3,2-h]quinoline-2-carboxylate]", "structure-activity comparison of corrector potency/activity": "Increased activity"}
{"compound": "CCOC(=O)c1c(Br)c2c(n1Cc1ccccc1C)-c1[nH]c(=O)c(S(=O)(=O)c3ccccc3)cc1CC2", "note": "[PP027, Ethyl 3-bromo 1-(2-methylbenzyl)-8-oxo-7-(phenylsulfonyl)-4,5,8,9-tetrahydro-1H-pyrrolo[3,2-h]quinoline-2-carboxylate]", "structure-activity comparison of corrector potency/activity": "potency comparable to that of PP008"}
